Numbered stars: 1 amine (or outer) side, 2 acyl side, 3 side chain; on linkers, the order of the positions; unused ones are H or OH. Bridge positions count the residues as written; N and C are the ends. Square brackets hold non-standard residues; d marks the D form. Peptide text beside a SMILES is read from it. * marks the point of attachment. ξ: configuration not given here. Bip = N[C@@H](Cc1ccc(-c2ccccc2)cc1)C(=O)O; X19 = O=C([C@@H]1CC(O)CN1[*:1])[*:2]; hArg = N=C(N)NCCCC[C@H](N)C(=O)O; 3Thi = N[C@@H](Cc1ccsc1)C(=O)O; Cha = N[C@@H](CC1CCCCC1)C(=O)O; Thr(3ξ) = CC(O)[C@H](N)C(=O)O; Carboxymethyl = O=C(O)C*; Orn = NCCC[C@H](N)C(=O)O; Aun = NCCCCCCCCCCC(=O)O; Dab = NCC[C@H](N)C(=O)O; AEEA = NCCOCCOCC(=O)O
Molecular target: T1, PD-1/PD-L1 interaction (PE-labeled human PD-L1-Ig binding to Jurkat cell line over-expressing human PD-1) (Homo sapiens, UniProt Q15116)
T1 construct: expressed in transfected cells; host or cells: Jurkat
Assay: Jurkat-PD-1 Cell Binding High-Content Screening Assay (CBA)
Format: cell-based
Details: Jurkat cell line over-expressing human PD-1; PE-labeled PD-L1-Ig 20 nM final; read-out: Jurkat hPD1-PDL1 IC50
Method in brief: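 Binding of fluorescent PD-L1-Ig (phycoerythrin on Ig tag, 20 nM final, 1 h) measured by high-content imaging of fixed, Hoechst-counterstained Jurkat-hPD-1 cells. Compound added 2 h at 37° C beforehand, in DMEM with 10% fetal calf serum.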

T1 sequence (Q15116 25-288): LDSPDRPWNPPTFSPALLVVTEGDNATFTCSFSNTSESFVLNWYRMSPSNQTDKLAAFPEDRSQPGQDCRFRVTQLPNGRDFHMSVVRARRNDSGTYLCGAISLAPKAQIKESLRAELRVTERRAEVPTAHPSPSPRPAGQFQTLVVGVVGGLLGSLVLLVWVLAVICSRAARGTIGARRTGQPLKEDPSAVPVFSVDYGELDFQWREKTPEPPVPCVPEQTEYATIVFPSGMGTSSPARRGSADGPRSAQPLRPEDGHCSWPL

IC50 [µM]	SMILES
0.0316	CC(C)C[C@H]1NC(=O)[C@H](CCCN)NC(=O)[C@H](C(C)C)NC(=O)[C@H](Cc2ccc(-c3ccccc3)cc2)NC(=O)[C@H](C(C)C)NC(=O)[C@H](Cc2c[nH]c3ccccc23)NC(=O)[C@H](CC(=O)O)NC(=O)[C@H](Cc2c[nH]cn2)NC(=O)[C@H](CCCCNC(=N)N)NC(=O)CSC[C@@H](C(=O)N[C@@H](CCN)C(=O)NCCCCCCCCCCC(=O)O)NC(=O)[C@H](CO)NC(=O)[C@H](C(C)C)NC(=O)[C@H](CC2CCCCC2)NC(=O)[C@H](CCN)NC1=O [Compound 3271] ({CH2CO}-[hArg]HDWV[Bip]V[Orn][dL][Dab][Cha]VSC[Dab][Aun]-OH; thioether N-14)
0.0298	CC(C)C[C@H]1NC(=O)[C@H](CCCN)NC(=O)[C@H](C(C)C)NC(=O)[C@H](Cc2ccc(-c3ccccc3)cc2)NC(=O)[C@H](C(C)C)NC(=O)[C@H](Cc2c[nH]c3ccccc23)NC(=O)[C@H](CC(=O)O)NC(=O)[C@H](Cc2c[nH]cn2)NC(=O)[C@H](CCCNC(=N)N)NC(=O)CSC[C@@H](C(=O)N[C@@H](CCN)C(=O)NCCCCCCCCCCC(=O)O)NC(=O)[C@H](CO)NC(=O)[C@H](C(C)C)NC(=O)[C@H](CC2CCCCC2)NC(=O)[C@H](CCN)NC1=O [Compound 3272] ({CH2CO}-RHDWV[Bip]V[Orn][dL][Dab][Cha]VSC[Dab][Aun]-OH; thioether N-14)
0.0275	CC(C)C[C@H]1NC(=O)[C@H](CCCN)NC(=O)[C@H](C(C)C)NC(=O)[C@H](Cc2ccc(-c3ccccc3)cc2)NC(=O)[C@H](C(C)C)NC(=O)[C@H](Cc2c[nH]c3ccccc23)NC(=O)[C@H](CC(=O)O)NC(=O)[C@H](Cc2c[nH]cn2)NC(=O)[C@H](CCCCNC(=N)N)NC(=O)CSC[C@@H](C(=O)N[C@@H](CCN)C(=O)NCCCCCCCCCCC(=O)O)NC(=O)[C@H](CCC(N)=O)NC(=O)[C@H](C(C)C)NC(=O)[C@H](CC2CCCCC2)NC(=O)[C@H](CCN)NC1=O [Compound 3273] ({CH2CO}-[hArg]HDWV[Bip]V[Orn][dL][Dab][Cha]VQC[Dab][Aun]-OH; thioether N-14)
0.411	CC(C)C[C@H]1NC(=O)[C@H](CCCN)NC(=O)[C@H](C(C)C)NC(=O)[C@H](Cc2ccc(-c3ccccc3)cc2)NC(=O)[C@H](C(C)C)NC(=O)[C@H](Cc2c[nH]c3ccccc23)NC(=O)[C@H](CC(=O)O)NC(=O)[C@H](Cc2c[nH]cn2)NC(=O)[C@H](CCCCNC(=N)N)NC(=O)CSC[C@@H](C(=O)N[C@@H](CCN)C(=O)NCCCCCCCCCCC(=O)O)NC(=O)[C@@H]2CC(O)CN2C(=O)[C@H](C(C)C)NC(=O)[C@H](CC2CCCCC2)NC(=O)[C@H](CCN)NC1=O (stereo partly drawn) [Compound 3274] ({CH2CO}-[hArg]HDWV[Bip]V[Orn][dL][Dab][Cha]V[X19]C[Dab][Aun]-OH; thioether N-14)
0.411	CC(C)C[C@H]1NC(=O)[C@H](CCCN)NC(=O)[C@H](C(C)C)NC(=O)[C@H](Cc2ccc(-c3ccccc3)cc2)NC(=O)[C@H](C(C)C)NC(=O)[C@H](Cc2c[nH]c3ccccc23)NC(=O)[C@H](CC(=O)O)NC(=O)[C@H](Cc2c[nH]cn2)NC(=O)[C@H](CCCNC(=N)N)NC(=O)CSC[C@@H](C(=O)N[C@@H](CCN)C(=O)NCCCCCCCCCCC(=O)O)NC(=O)[C@@H]2CC(O)CN2C(=O)[C@H](C(C)C)NC(=O)[C@H](CC2CCCCC2)NC(=O)[C@H](CCN)NC1=O (stereo partly drawn) [Compound 3275] ({CH2CO}-RHDWV[Bip]V[Orn][dL][Dab][Cha]V[X19]C[Dab][Aun]-OH; thioether N-14)
0.0105	CC(C)C[C@H]1NC(=O)[C@H](CCN)NC(=O)[C@H](C(C)C)NC(=O)[C@H](Cc2ccc(-c3ccccc3)cc2)NC(=O)[C@H](C(C)C)NC(=O)[C@H](Cc2c[nH]c3ccccc23)NC(=O)[C@H](CC(=O)O)NC(=O)[C@H](Cc2ccc(OCC(=O)O)cc2)NC(=O)[C@H](CCCCNC(=N)N)NC(=O)CSC[C@@H](C(=O)N[C@H](CC(N)=O)C(=O)NCCCCCCCCCCC(=O)O)NC(=O)[C@H](CCCN)NC(=O)[C@H](C(C)C)NC(=O)[C@H](CC2CCCCC2)NC(=O)[C@H](CCN)NC1=O [Compound 3277] ({CH2CO}-[hArg]Y(Carboxymethyl)DWV[Bip]V[Dab][dL][Dab][Cha]V[Orn]C[dN][Aun]-OH; thioether N-14)
0.0087	CC(C)C[C@H]1NC(=O)[C@H](CCCN)NC(=O)[C@H](C(C)C)NC(=O)[C@H](Cc2ccc(-c3ccccc3)cc2)NC(=O)[C@H](C(C)C)NC(=O)[C@H](Cc2c[nH]c3ccccc23)NC(=O)[C@H](CC(=O)O)NC(=O)[C@H](Cc2ccc(OCC(=O)O)cc2)NC(=O)[C@H](CCCCNC(=N)N)NC(=O)CSC[C@@H](C(=O)N[C@H](CC(N)=O)C(=O)NCCCCCCCCCCC(=O)O)NC(=O)[C@H](CCCN)NC(=O)[C@H](C(C)C)NC(=O)[C@H](CC2CCCCC2)NC(=O)[C@H](CCN)NC1=O [Compound 3278] ({CH2CO}-[hArg]Y(Carboxymethyl)DWV[Bip]V[Orn][dL][Dab][Cha]V[Orn]C[dN][Aun]-OH; thioether N-14)
0.0467	CC(C)[C@@H]1NC(=O)[C@H](CC2CCCCC2)NC(=O)[C@H](CCN)NC(=O)[C@@H](C)NC(=O)[C@H](CCN)NC(=O)[C@H](C(C)C)NC(=O)[C@H](Cc2ccc(-c3ccccc3)cc2)NC(=O)[C@H](C(C)C)NC(=O)[C@H](Cc2c[nH]c3ccccc23)NC(=O)[C@H](CC(=O)O)NC(=O)[C@H](Cc2ccc(OCC(=O)O)cc2)NC(=O)[C@H](CCCCNC(=N)N)NC(=O)CSC[C@@H](C(=O)N[C@@H](CCN)C(=O)NCCOCCOCC(=O)NCCCCCCCCCCC(=O)O)NC(=O)[C@H](CCCN)NC1=O [Compound 3279] ({CH2CO}-[hArg]Y(Carboxymethyl)DWV[Bip]V[Dab][dA][Dab][Cha]V[Orn]C[Dab][AEEA][Aun]-OH; thioether N-14)
0.0422	CC(C)C[C@H]1NC(=O)[C@H](CCN)NC(=O)[C@H](C(C)C)NC(=O)[C@H](Cc2ccc(-c3ccccc3)cc2)NC(=O)[C@H](C(C)C)NC(=O)[C@H](Cc2c[nH]c3ccccc23)NC(=O)[C@H](CC(=O)O)NC(=O)[C@H](Cc2ccc(OCC(=O)O)cc2)NC(=O)[C@H](Cc2ccsc2)NC(=O)CSC[C@@H](C(=O)NCCOCCOCC(=O)NCCCCCCCCCCC(=O)O)NC(=O)[C@H](C(C)O)NC(=O)[C@H](C(C)C)NC(=O)[C@H](CC2CCCCC2)NC(=O)[C@H](CCN)NC1=O (stereo partly drawn) [Compound 3280] ({CH2CO}-[3Thi]Y(Carboxymethyl)DWV[Bip]V[Dab][dL][Dab][Cha]V[Thr(3ξ)]C[AEEA][Aun]-OH; thioether N-14)
0.0987	CC(C)C[C@H]1NC(=O)[C@H](CCN)NC(=O)[C@H](C(C)C)NC(=O)[C@H](Cc2ccc(-c3ccccc3)cc2)NC(=O)[C@H](C(C)C)NC(=O)[C@H](Cc2c[nH]c3ccccc23)NC(=O)[C@H](CC(=O)O)NC(=O)[C@H](Cc2ccc(OCC(=O)O)cc2)NC(=O)[C@H](Cc2ccsc2)NC(=O)CSC[C@@H](C(=O)N[C@@H](CCCN)C(=O)NCCCCCCCCCCC(=O)O)NC(=O)[C@H](C(C)O)NC(=O)[C@H](C(C)C)NC(=O)[C@H](CC2CCCCC2)NC(=O)[C@H](CCN)NC1=O (stereo partly drawn) [Compound 3281] ({CH2CO}-[3Thi]Y(Carboxymethyl)DWV[Bip]V[Dab][dL][Dab][Cha]V[Thr(3ξ)]C[Orn][Aun]-OH; thioether N-14)

Reference: patent US20260022142A1, “MACROCYCLIC IMMUNOMODULATORS” (Bristol-Myers Squibb Company, priority 2022, published 2026)
